This assay relates to MDA-MB-435 TRAIL potentiation, ATPlite cytotoxicity, 24 h. Description: PubChem AID 1773. The settings on record: stronger effect = higher value.

Consider `CSc1nc(-c2ccc(C)cc2)nc(C(Cl)Cl)n1`, for which the cytotoxicity (at 5 µM) turned out to be 50%; the cytotoxicity (compound 2.5 uM plus TRAIL 10, at 2.5 µM) is 84%; the cytotoxicity (compound alone cytotoxicity, at 5 µM) is -1%; the cytotoxicity (compound plus 100 ng/mL TRAIL, at 5 µM) amounted to 83%. For the same molecule, the cytotoxicity with 30 ng/mL TRAIL (at 5 µM) is 91%.

The values above are taken from PubChem BioAssay AID1773 (Sanford-Burnham Center for Chemical Genomics, 2009).
